# Experimental data from paper PMC6691347, “Design and Development of a Novel Peptide for Treating Intestinal Inflammation” (Frontiers in Immunology, 2019).
# Assays:
# [1] = tested on: RAW264.7 cells; test: Cell viability assay (CCK-8); type: cell-based, Mouse; details: for cytotoxic activity on RAW264.7 macrophage cells: CCK-8, 24 h, among selected hybrid peptides and their parental peptides; for cell viability: RAW264.7 cells, lower doses of peptide, 24 h, CCK-8, OD450, 8 biological replicates
# Protocol: The viability of peptide-treated RAW264.7 cells was determined using the Cell Counting Kit-8 (CCK-8) Assay Kit (Dojindo) ([42]). RAW264.7 cells were pre-seeded on a 96-well plate at a density of 3 × 10^4 cells/mL in 100 μL DMEM medium overnight. The cells were either treated with various concentrations of peptides or without peptides at 37°C and 5% CO2 for 24 h. Each well was incubated with 10 μL CCK-8 solution for 4 h in the darkness. Then, the absorbance at 450 nm was measured using a microplate reader. Cell viability was calculated as:
# Cell viability (%)=(OD450 (sample)/OD450(control))×100%
# where OD450(sample) is the absorbance at 450 nm of the cells with peptides treated and OD450(control) is the absorbance at 450 nm of the cells without peptides treated.
# [2] = tested on: LPS-stimulated RAW264.7 cells; test: ELISA of cytokine release from LPS-stimulated RAW264.7 cells; type: cell-based, Mouse; details: RAW264.7, 10 μg/mL peptide 1 h before 100 ng/mL LPS, 12 h, ELISA of supernatant; compared to the other tested peptides; n = 3
# Protocol: (§1) RAW264.7 cells were treated with or without 10 μg/mL peptides for 1h before the addition of 100 ng/mL LPS and further incubation for 12 h at 37°C. Levels of tumor necrosis factor-alpha (TNF-α), interleukin-6 (IL-6), and IL-1β were detected in culture supernatant and jejunum, respectively. In addition, the level of interferon-gamma (IFN-γ) was detected in the jejunum. ELISA was performed using a commercial ELISA kit (eBioscience, San Diego, USA).
# [3] = Neutralization of LPS, Chromogenic End-point Tachypleus Amebocyte Lysate (CE TAL) assay; type: biochemical, E. coli
# Protocol: The neutralization of LPS by the peptides was assessed using a quantitative Chromogenic End-point Tachypleus Amebocyte Lysate (CE TAL) assay via the QCL-1000 kit (Xiamen, China). A constant concentration of LPS (1.0 EU/mL final concentration; E. coli, O111:B4, Sigma-Aldrich, USA) was incubated with various concentrations of the peptides or polymyxin B (PMB) (0–64 μg/mL final concentration; Sigma-Aldrich, USA) at 37°C for 15 min in the wells of […] sterile microliters plates. The 100 μL aliquots concentrate of limulus amebocyte lysate reagent was added and incubated at 37°C for 6 min. On the addition of chromogenic substrate, yellow color appeared. The reactions were stopped by adding 25% HCl, and then the absorbances measured at 540 nm ([45]).
# [4] = tested on: LPS-induced intestinal inflammation; test: LPS-induced intestinal inflammation murine model; type: in vivo, C57/BL6 male mice
# Protocol: Seventy-two C57/BL6 male mice (6–8 weeks of age) were purchased from Charles River (Beijing, China). Mice were maintained in a specific pathogen free (SPF) environment at 22 ± 1°C with relative 55 ± 10% humidity, and the assays were performed in conformity with the laws and regulations for live animal treatment at China Agricultural University.
# The mice were randomly distributed into six groups (n = 12 each): control, LPS (E. coli, O111:B4, Sigma-Aldrich, USA) treatment, LL-37 pretreatment followed by LPS treatment (LL-37 + LPS), Tα1 pretreatment followed by LPS treatment (Tα1 + LPS), LTA pretreatment followed by LPS treatment (LTA + LPS). Different peptides (10 mg/kg mouse weight) were injected intraperitoneally once daily for 7 days, whereas an equal volume of sterile saline was injected intraperitoneally to the control and LPS-treated groups. On day 7, mice in LPS, LL-37 + LPS, Tα1 + LPS, and LTA + LPS groups were intraperitoneally injected with LPS (10 mg/kg mouse weight) 1h after saline or the peptides treatment, and the control group was intraperitoneally injected with an equal volume of saline. The mice were then euthanized by cervical dislocation 6 h after intraperitoneal injection of LPS or saline, and samples of the intestines were collected for analysis. The body weights of the mice were recorded before and after the experiment.
# Intestinal tissues samples from the jejunum were fixed in 4% paraformaldehyde immediately after the mice were euthanized. After embedding, the tissues were sectioned (5 μm) using an RM2235 microtome (Leica) and stained with hematoxylin-eosin (H&E). Images were acquired using a DM3000 microscope. LPS-induced intestinal injury was evaluated using Chiu's score ([43]) according to changes of the villus and glands of the jejunal mucosa. Villus height and crypt depth were measured using CaseViewer software.
# For immunohistochemical analysis of CD177^+, nonspecific binding sites were blocked with PBS containing 1% w/v BSA for 1 h. Anti-CD177^+ antibodies (Santa, USA) were added at a dilution of 1:100 and incubated overnight at 4°C. Samples were washed five times in PBS and treated with horse-radish peroxidase (HRP)-conjugated rabbit anti-goat IgG (JIR, USA) at ratio of 1:100; samples were left to incubate at 4°C for 1 h. After washing with PBS, 3,3′-diaminobenzidine (DAB; DAKO, USA) was added, and the slides were counterstained with Harris hematoxylin. Finally, the samples were dehydrated in an alcohol gradient (70–100%), and cleared in xylene. All slides were mounted in neutral balsam.
# The apoptotic cells in the jejunal sections were detected via a commercial the terminal deoxynucleotidyl transferase mediated dUTP nick end labeling (TUNEL) staining kit according to the manufacturer's instruction (Roche, Indianapolis, IN, USA). The sections were co-stained with the DAPI (Servicebio, Wuhan, China). The number of apoptotic cells was counted in four to six randomly selected fields at 200 × magnification.
# as §1
# The activities of myeloperoxidase (MPO) in the jejunum were detected using ELISA kits (Boster Wuhan, China) according to the manufacturer's instructions.
# Whole protein of intestinal tissues was obtained with the whole protein extraction kit (KeyGEN Biotech, Nanjing, China) according to the manufacturer's instructions. The protein concentration was measured via the BCA kit (KeyGEN Biotech, Nanjing, China). […]
# [5] = ELISA, peptide 10 mg/kg i.p. pretreatment, LPS 10 mg/kg, LTA compared to Tα1- or LL-37-pretreated groups, n = 12
# [6] = jejunal tissues, western blot, LTA pretreatment vs LPS, n = 3
# [7] = jejunum, western blot, LTA 10 mg/kg i.p. pretreatment, LPS 10 mg/kg
sequence,measurement,setting,value
"IGKEFKRIVQRIKDFLRNLVPRTERKDVT [LTP, hybrid peptide LL-37-TP5]",cytotoxic activity on RAW264.7 macrophage cells,[1],lowest cytotoxic activity
same,cell viability,[1],greater than 100%
"IGKEFKRIVQRIKDFLRNLVPRTEKEKKEVVE [LTA, hybrid peptide LL-37-Tα1]",release of IL-1β,[2],remarkable decrease
same,release of IL-6,[2],remarkable decrease
same,release of TNF-α,[2],remarkable decrease
same,cytotoxic activity on RAW264.7 macrophage cells,[1],lowest cytotoxic activity
same,cell viability,[1],greater than 100%
same,concentration that completely neutralizes LPS,"[3]; LPS 1.0 EU/mL, 37°C 15 min, CE TAL, n = 3",≥ 8 µg/mL
same,inhibition of the activation of tachypleus amebocyte lysate (LPS neutralization),"[3]; LPS 1.0 EU/mL, peptide 0–64 μg/mL, 37°C 15 min, n = 3",dose-dependent manner
same,concentration that almost completely neutralizes LPS,"[3]; in vitro, CE TAL, statement of the discussion",8 µg/mL
same,plasma LPS level,"[4]; CE TAL test of mouse plasma, LTA 10 mg/kg i.p. pretreatment, LPS 10 mg/kg",significantly reduced the plasma LPS level
same,MPO activity in the jejunum,"[4]; ELISA kit, peptide 10 mg/kg i.p. pretreatment, LPS 10 mg/kg, compared to the LPS-treated group, n = 12",markedly decreased MPO activity
same,IFN-γ concentration in the jejunum,[4]; [5],significantly lower
same,IL-1β concentration in the jejunum,[4]; [5],significantly lower
same,IL-6 concentration in the jejunum,[4]; [5],significantly lower
same,TNF-α concentration in the jejunum,[4]; [5],significantly lower
same,infiltration of CD177+ neutrophils into jejunal tissue,"[4]; immunohistochemistry, peptide 10 mg/kg i.p. pretreatment, LPS 10 mg/kg",reduced this effect to the basal level
same,apoptosis index (TUNEL staining),"[4]; jejunal sections, peptide 10 mg/kg i.p. pretreatment, LPS 10 mg/kg, compared to the LPS-treated group",significantly reduced the apoptosis index
same,phosphorylation of IKK-β,[4]; [6],decreased
same,phosphorylation of IκB-α,[4]; [6],decreased
same,phosphorylation of NF-κB,[4]; [6],decreased
same,Chiu's score,"[4]; jejunum H&E, mice, peptide 10 mg/kg i.p. once daily for 7 days, LPS 10 mg/kg i.p., 6 h after LPS, LPS group 3.33 ± 0.58, mean ± SD",0.67 ± 0.58
same,expression of Occludin,[4]; [7],significantly higher than that in the LPS-group
same,expression of ZO-1,[4]; [7],significantly higher than that in the LPS-group
same,villus height to crypt depth (V/C) ratio,"[4]; jejunum, mice, peptide 10 mg/kg i.p. once daily for 7 days, LPS 10 mg/kg i.p., 6 h after LPS, LPS group 2.35 ± 0.389, mean ± SD",4.19 ± 0.364
same,body weight (weight loss after LPS),"[4]; mice, peptide 10 mg/kg i.p. once daily, then LPS 10 mg/kg i.p. 1 h after last dose, n = 12",recovered their weight loss rapidly
